What was measured:
Test in all cases: relative viability (nuclei count vs DMSO), 5 days (fraction); higher = more cells survive
HOP-62 = test system: HOP-62
Procedure, shortened: (§1)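 Lung cancer cell lines were seeded in 1536-well plates and dosed by pin tool the next day, with either a single drug or a fixed anchor-drug dose combined with five library-drug doses (not always all listed) spaced in √10 steps. Five days later, one step fixed the cells and stained their nuclei (final 0.05% Triton X-100, 1% formaldehyde, 1 ug/ml Hoechst), and nuclei were counted on 4× images. Relative viability is the nuclei count in treated wells divided by the count in vehicle wells, and each value is the median of duplicate plates.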

H3255 = test system: H3255
Procedure, shortened: as §1

NCI-H2009 = test system: NCI-H2009
Procedure, shortened: as §1

NCI-H727 = test system: NCI-H727
Procedure, shortened: as §1

NCI-H2347 = test system: NCI-H2347
Procedure, shortened: as §1

NCI-H1734 = test system: NCI-H1734
Procedure, shortened: as §1

NCI-H647 = test system: NCI-H647
Procedure, shortened: as §1

PC-14 = test system: PC-14
Procedure, shortened: as §1

NCI-H2126 = test system: NCI-H2126
Procedure, shortened: as §1

LCLC-97TM1 = test system: LCLC-97TM1
Procedure, shortened: as §1

NCI-H1993 = test system: NCI-H1993
Procedure, shortened: as §1

NCI-H1563 = test system: NCI-H1563
Procedure, shortened: as §1

NCI-H661 = test system: NCI-H661
Procedure, shortened: as §1

SK-LU-1 = test system: SK-LU-1
Procedure, shortened: as §1

NCI-H2023 = test system: NCI-H2023
Procedure, shortened: as §1

NCI-H1915 = test system: NCI-H1915
Procedure, shortened: as §1

SW 1573 = test system: SW 1573
Procedure, shortened: as §1

NCI-H322M = test system: NCI-H322M
Procedure, shortened: as §1

EPLC-272H = test system: EPLC-272H
Procedure, shortened: as §1

NCI-H2085 = test system: NCI-H2085
Procedure, shortened: as §1

LXF-289 = test system: LXF-289
Procedure, shortened: as §1

EMC-BAC-2 = test system: EMC-BAC-2
Procedure, shortened: as §1

Work on `Nc1ccn([C@@H]2O[C@H](CO)[C@@H](O)[C@@H]2O)c(=O)n1` [Cytarabine] + CC(C)C[C@H](NC(=O)[C@H](Cc1ccccc1)NC(=O)c1cnccn1)B(O)O [Bortezomib] (partner 0.002 µM) yielded a relative viability (HOP-62; first compound 0.005 µM) of 0.58, a relative viability (HOP-62; first compound 0.01581 µM) of 0.291 and a relative viability (HOP-62; first compound 0.05 µM) of 0.208. For the same compound, the relative viability (HOP-62; first compound 0.1581 µM) was 0.174, the relative viability (HOP-62; first compound 0.5 µM) was 0.0493 and the relative viability (H3255; first compound 0.005 µM) was 0.745. The relative viability (H3255; first compound 0.01581 µM) was 0.797, the relative viability (H3255; first compound 0.05 µM) was 0.575 and the relative viability (H3255; first compound 0.1581 µM) was 0.517. The relative viability (H3255; first compound 0.5 µM) was 0.468, the relative viability (NCI-H2009; first compound 0.005 µM) was 1.05 and the relative viability (NCI-H2009; first compound 0.01581 µM) was 1.03. The relative viability (NCI-H2009; first compound 0.05 µM) was 0.952, the relative viability (NCI-H2009; first compound 0.1581 µM) was 0.634 and the relative viability (NCI-H2009; first compound 0.5 µM) was 0.311. The relative viability (NCI-H727; first compound 0.005 µM) was 0.524, the relative viability (NCI-H727; first compound 0.01581 µM) was 0.558 and the relative viability (NCI-H727; first compound 0.05 µM) was 0.484. The relative viability (NCI-H727; first compound 0.1581 µM) was 0.334, the relative viability (NCI-H727; first compound 0.5 µM) was 0.315 and the relative viability (NCI-H2347; first compound 0.005 µM) was 1.22. It also gave a relative viability (NCI-H2347; first compound 0.01581 µM) of 0.951, a relative viability (NCI-H2347; first compound 0.05 µM) of 0.546 and a relative viability (NCI-H2347; first compound 0.1581 µM) of 0.61. For the same compound, the relative viability (NCI-H2347; first compound 0.5 µM) was 0.667, the relative viability (NCI-H1734; first compound 0.005 µM) was 0.515 and the relative viability (NCI-H1734; first compound 0.01581 µM) was 0.377. It also gave a relative viability (NCI-H1734; first compound 0.05 µM) of 0.347, a relative viability (NCI-H1734; first compound 0.1581 µM) of 0.149 and a relative viability (NCI-H1734; first compound 0.5 µM) of 0.159. For the same compound, the relative viability (NCI-H647; first compound 0.005 µM) was 0.695, the relative viability (NCI-H647; first compound 0.01581 µM) was 0.423 and the relative viability (NCI-H647; first compound 0.05 µM) was 0.513. For the same compound, the relative viability (NCI-H647; first compound 0.1581 µM) was 0.113, the relative viability (NCI-H647; first compound 0.5 µM) was 0.081 and the relative viability (PC-14; first compound 0.005 µM) was 0.872. It also gave a relative viability (PC-14; first compound 0.01581 µM) of 0.88, a relative viability (PC-14; first compound 0.05 µM) of 0.641 and a relative viability (PC-14; first compound 0.1581 µM) of 0.326. For the same compound, the relative viability (PC-14; first compound 0.5 µM) was 0.268, the relative viability (NCI-H2126; first compound 0.005 µM) was 1.08 and the relative viability (NCI-H2126; first compound 0.01581 µM) was 1.07. It also gave a relative viability (NCI-H2126; first compound 0.05 µM) of 1.09, a relative viability (NCI-H2126; first compound 0.1581 µM) of 0.703 and a relative viability (NCI-H2126; first compound 0.5 µM) of 0.699. For the same compound, the relative viability (LCLC-97TM1; first compound 0.005 µM) was 0.277, the relative viability (LCLC-97TM1; first compound 0.01581 µM) was 0.349 and the relative viability (LCLC-97TM1; first compound 0.05 µM) was 0.132. It also gave a relative viability (LCLC-97TM1; first compound 0.1581 µM) of 0.084, a relative viability (LCLC-97TM1; first compound 0.5 µM) of 0.0888 and a relative viability (NCI-H1993; first compound 0.005 µM) of 1.1. The relative viability (NCI-H1993; first compound 0.01581 µM) was 0.964, the relative viability (NCI-H1993; first compound 0.05 µM) was 1 and the relative viability (NCI-H1993; first compound 0.1581 µM) was 0.768. The relative viability (NCI-H1993; first compound 0.5 µM) was 0.62, the relative viability (NCI-H1563; first compound 0.005 µM) was 0.878 and the relative viability (NCI-H1563; first compound 0.01581 µM) was 0.928. For the same compound, the relative viability (NCI-H1563; first compound 0.05 µM) was 0.779, the relative viability (NCI-H1563; first compound 0.1581 µM) was 0.835 and the relative viability (NCI-H1563; first compound 0.5 µM) was 0.592. It also gave a relative viability (NCI-H661; first compound 0.005 µM) of 0.997, a relative viability (NCI-H661; first compound 0.01581 µM) of 0.667 and a relative viability (NCI-H661; first compound 0.05 µM) of 0.596. The relative viability (NCI-H661; first compound 0.1581 µM) was 0.381, the relative viability (NCI-H661; first compound 0.5 µM) was 0.246 and the relative viability (SK-LU-1; first compound 0.005 µM) was 0.818. For the same compound, the relative viability (SK-LU-1; first compound 0.01581 µM) was 0.69, the relative viability (SK-LU-1; first compound 0.05 µM) was 0.558 and the relative viability (SK-LU-1; first compound 0.1581 µM) was 0.393. For the same compound, the relative viability (SK-LU-1; first compound 0.5 µM) was 0.296, the relative viability (NCI-H2023; first compound 0.005 µM) was 0.469 and the relative viability (NCI-H2023; first compound 0.01581 µM) was 0.198. It also gave a relative viability (NCI-H2023; first compound 0.05 µM) of 0.17, a relative viability (NCI-H2023; first compound 0.1581 µM) of 0.0751 and a relative viability (NCI-H2023; first compound 0.5 µM) of 0.0603. The relative viability (NCI-H1915; first compound 0.005 µM) was 0.74, the relative viability (NCI-H1915; first compound 0.01581 µM) was 0.952 and the relative viability (NCI-H1915; first compound 0.05 µM) was 0.8. The relative viability (NCI-H1915; first compound 0.1581 µM) was 0.385, the relative viability (NCI-H1915; first compound 0.5 µM) was 0.25 and the relative viability (SW 1573; first compound 0.005 µM) was 1.1. It also gave a relative viability (SW 1573; first compound 0.01581 µM) of 0.847, a relative viability (SW 1573; first compound 0.05 µM) of 0.675 and a relative viability (SW 1573; first compound 0.1581 µM) of 0.461. The relative viability (SW 1573; first compound 0.5 µM) was 0.159, the relative viability (NCI-H322M; first compound 0.005 µM) was 0.718 and the relative viability (NCI-H322M; first compound 0.01581 µM) was 1.01. The relative viability (NCI-H322M; first compound 0.05 µM) was 0.717, the relative viability (NCI-H322M; first compound 0.1581 µM) was 0.472 and the relative viability (NCI-H322M; first compound 0.5 µM) was 0.404. It also gave a relative viability (EPLC-272H; first compound 0.005 µM) of 0.906, a relative viability (EPLC-272H; first compound 0.01581 µM) of 0.831 and a relative viability (EPLC-272H; first compound 0.05 µM) of 0.53. For the same compound, the relative viability (EPLC-272H; first compound 0.1581 µM) was 0.412, the relative viability (EPLC-272H; first compound 0.5 µM) was 0.453 and the relative viability (NCI-H2085; first compound 0.005 µM) was 0.983. It also gave a relative viability (NCI-H2085; first compound 0.01581 µM) of 0.913, a relative viability (NCI-H2085; first compound 0.05 µM) of 0.946 and a relative viability (NCI-H2085; first compound 0.1581 µM) of 0.631. For the same compound, the relative viability (NCI-H2085; first compound 0.5 µM) was 0.66, the relative viability (LXF-289; first compound 0.005 µM) was 0.887 and the relative viability (LXF-289; first compound 0.01581 µM) was 0.936. The relative viability (LXF-289; first compound 0.05 µM) was 0.901, the relative viability (LXF-289; first compound 0.1581 µM) was 0.474 and the relative viability (LXF-289; first compound 0.5 µM) was 0.258. It also gave a relative viability (EMC-BAC-2; first compound 0.005 µM) of 1.03, a relative viability (EMC-BAC-2; first compound 0.01581 µM) of 1.09 and a relative viability (EMC-BAC-2; first compound 0.05 µM) of 0.807. It also gave a relative viability (EMC-BAC-2; first compound 0.1581 µM) of 0.254 and a relative viability (EMC-BAC-2; first compound 0.5 µM) of 0.229.

From the supplement of paper PMC10307832
